Where a name gives a salt, the structure may show the parent alone.
Columns and labels:
[1] = tested on: grafted B16 F0 murine melanoma tumour; test: Biodistribution of the ^125I-labelled molecules in the melanoma-bearing mouse (autoradiography of whole-body sections); details: for Biodistribution, Mean, B 16: B 16 tumour
[2] = tested on: tumour; test: Dosimetry with regard to the tumour (MIRD programme, extrapolated to ^131I)
[3] = Elimination of the molecules: cumulative urinary and faecal excretion 0-72 hours; format: in vivo, mouse

Compound: CCN(CC)CCNC(=O)c1c[nH]c2ccc(I)cc2c1=O [compound 35, N-(2-diethylaminoethyl)-1,4-dihydro-6-iodo-4-oxoquinoline-3-carboxamide dihydrochloride]
- Biodistribution, Mean, B 16 ([1]; 1 H): 4.69
- Biodistribution, Mean, B 16 ([1]; 3 H): 4.05
- Biodistribution, Mean, B 16 ([1]; 6 H): 5.81
- Biodistribution, Mean, B 16 ([1]; 24 H): 2.74
- Biodistribution, Mean, B 16 ([1]; 72 H): 2.35
- Biodistribution, Mean, Ic ([1]; 1 H): 52.94
- Biodistribution, Mean, Ic ([1]; 3 H): 90.12
- Biodistribution, Mean, Ic ([1]; 6 H): 61.06
- Biodistribution, Mean, Ic ([1]; 24 H): 1.62
- Biodistribution, Mean, Ic ([1]; 72 H): 0.70
- Biodistribution, Mean, Sc ([1]; 1 H): 12.74
- Biodistribution, Mean, Sc ([1]; 3 H): 9.93
- Biodistribution, Mean, Sc ([1]; 6 H): 22.27
- Biodistribution, Mean, Sc ([1]; 24 H): 0.13
- Biodistribution, Mean, blood ([1]; 1 H): 0.42
- Biodistribution, Mean, blood ([1]; 3 H): 0.23
- Biodistribution, Mean, blood ([1]; 6 H): 0.17
- Biodistribution, Mean, blood ([1]; 24 H): 0.22
- Biodistribution, Mean, brain ([1]; 1 H): 0.07
- Biodistribution, Mean, brain ([1]; 6 H): 0.08
- Biodistribution, Mean, brain ([1]; 24 H): 0.04
- Biodistribution, Mean, brain ([1]; 72 H): 0.10
- Biodistribution, Mean, kidney ([1]; 1 H): 2.80
- Biodistribution, Mean, kidney ([1]; 3 H): 0.80
- Biodistribution, Mean, kidney ([1]; 6 H): 0.20
- Biodistribution, Mean, kidney ([1]; 24 H): 0.03
- Biodistribution, Mean, liver ([1]; 1 H): 5.16
- Biodistribution, Mean, liver ([1]; 3 H): 1.84
- Biodistribution, Mean, liver ([1]; 6 H): 0.32
- Biodistribution, Mean, liver ([1]; 24 H): 0.07
- Biodistribution, Mean, lungs ([1]; 1 H): 2.06
- Biodistribution, Mean, lungs ([1]; 3 H): 0.88
- Biodistribution, Mean, lungs ([1]; 6 H): 0.15
- Biodistribution, Mean, lungs ([1]; 24 H): 0.04
- Biodistribution, Mean, muscle ([1]; 1 H): 0.92
- Biodistribution, Mean, muscle ([1]; 3 H): 0.13
- Biodistribution, Mean, muscle ([1]; 6 H): 0.01
- Biodistribution, Mean, pancreas ([1]; 1 H): 5.74
- Biodistribution, Mean, pancreas ([1]; 3 H): 0.96
- Biodistribution, Mean, pancreas ([1]; 6 H): 1.08
- Biodistribution, Mean, spleen ([1]; 1 H): 1.24
- Biodistribution, Mean, spleen ([1]; 3 H): 0.28
- Biodistribution, Mean, spleen ([1]; 6 H): 0.26
- Biodistribution, Mean, spleen ([1]; 24 H): 0.15
- Biodistribution, Mean, thyroid ([1]; 3 H): 4.33
- Biodistribution, Mean, thyroid ([1]; 6 H): 8.55
- Biodistribution, Mean, thyroid ([1]; 24 H): 5.09
- Biodistribution, Mean, thyroid ([1]; 72 H): 9.83
- Biodistribution, Mean, uvea ([1]; 1 H): 5.12
- Biodistribution, Mean, uvea ([1]; 3 H): 5.66
- Biodistribution, Mean, uvea ([1]; 6 H): 5.18
- Biodistribution, Mean, uvea ([1]; 24 H): 3.5
- Biodistribution, Mean, uvea ([1]; 72 H): 6.79
- Effective period ([2]; extrapolated to 131I labelling): 49.4 h
- Biological period ([2]; from biodistribution data): 66.3 hours
- Faecal elimination 0-72 hours (Faeces) ([3]; cumulative excretion 0-72 hours, faeces, mice in metabolic cages): 69.2%
- Urinary and faecal elimination 0-72 hours (Total) ([3]; cumulative excretion 0-72 hours, urine + faeces): 93.0%
- Urinary elimination 0-72 hours (Urine) ([3]; cumulative excretion 0-72 hours, urine, mice in metabolic cages): 23.8%
- elimination route (in words) ([3]; urinary versus faecal, 0-72 hours): faecal route predominates

Reference: US20100061928A1, “LABELLED ANALOGUES OF HALOBENZAMIDES AS RADIOPHARMACEUTICALS” (Institut National De La Sante et De La Recherche Medicale …, priority 2006, published 2010)
